From patent US12522562B2, “Intestine-specific partial agonists of farnesoid X receptor and uses thereof” (EWHA DrugDesignHouse Co., Ltd., priority 2022, dated 2026) come the findings set out here.

SMILES strings stand for the structures. Where two headings read alike, the source gives them in different places. A value given as a limit tells only on which side of the number the result lay.

The target in one data set is T1, FXR (Homo sapiens, UniProt Q96RI1).
T1 sequence (Q96RI1 1-486): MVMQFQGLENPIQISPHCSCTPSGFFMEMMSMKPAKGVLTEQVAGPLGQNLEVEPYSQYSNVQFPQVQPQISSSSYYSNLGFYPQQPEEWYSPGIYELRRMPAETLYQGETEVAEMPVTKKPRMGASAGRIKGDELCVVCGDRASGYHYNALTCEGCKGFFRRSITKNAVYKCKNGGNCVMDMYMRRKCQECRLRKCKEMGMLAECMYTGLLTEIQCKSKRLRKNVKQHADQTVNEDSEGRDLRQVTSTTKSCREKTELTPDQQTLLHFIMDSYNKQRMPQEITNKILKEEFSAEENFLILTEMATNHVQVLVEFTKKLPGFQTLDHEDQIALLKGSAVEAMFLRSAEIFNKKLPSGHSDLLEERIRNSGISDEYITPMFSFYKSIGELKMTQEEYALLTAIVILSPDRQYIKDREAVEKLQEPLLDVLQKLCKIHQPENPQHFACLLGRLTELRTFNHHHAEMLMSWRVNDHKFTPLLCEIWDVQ
In words: PathHunter NHR protein interaction assay, agonist mode (FXR).

Data set [1] is described as follows: Pharmacokinetic studies of Example 11 in rats. Format: in vivo, Sprague-Dawley rats. As to the method:
To investigate whether Example 11 is indeed an intestine-selective/specific FXR agonist, its pharmacokinetic profile was evaluated. Male Sprague-Dawley rats (7-week old, 240-260 g) were purchased from Orient Bio. Inc. (Seongnam, Korea). Rats were kept in the cage maintained under a controlled environment (temperature of 23±3° C., relative humidity of 50±5%, and 12 h dark-light cycle) for at least 3 days. Rats were fasted overnight before dose administration. The Example 11 was dissolved in a mixture of DMSO, Tween 80, and 0.9% saline solution (v:v:v, 1:1:8) at a concentration of 2.5 mg/mL for intravenous injection (IV). Also, Example 11 was dissolved in corn oil for oral administration (PO). Rats were divided into two groups; IV group and PO group including at least 6 animals per group. After anesthetized with isoflurane, rats were given the dose of 5 mg/kg via IV injection or 80 mg/kg via PO administration by oral gavage into the stomach. Blood samples (approximately 0.25 mL) were obtained by subclavian vein puncture at 0, 0.033, 0.083, 0.167, 0.333, 0.667, 1, 2, 3, 5, 7, 10, and 24 h after IV injection. After PO administration, blood samples were obtained at 0, 0.083, 0.167, 0.333, 0.667, 1, 2, 3, 5, 7, 10, and 24 h post-dose. Subsequently, blood samples were collected in 1.5-mL Eppendorf tube on an ice. The tubes were centrifuged at 13500 rpm for 15 min at 4° C. to separate the plasma fraction. Then, the plasma samples were stored at […] until HPLC analysis. To prepare the samples for HPLC analysis, 5 μL of Example 11 or Example 24 and 5 μL of internal standard, Example 4 were added to 45 μL of plasma. For extraction, 45 μL of MeCN was added to the mixture. Then, the mixture was vortexed for 2 min and centrifuged at 13500 rpm for 15 min at room temperature. The 60 μL of clear supernatant was transferred to an insert. Then, the HPLC auto-injector was programmed to inject 40 μL of the sample to the HPLC system for analysis. The linearity of the calibration curve was obtained by plotting the peak area ratio (area of Example 11 or area of Example 24/area of Example 4). Pharmacokinetic parameters were calculated by non-compartmental analysis of the plasma concentration-time profiles using Winnonlin® Professional version 8.01 software (Pharsight Corporation, Mountain View, CA). Oral bioavailability (F) was calculated by the ratio of the dose-corrected area under the plasma drug concentration-time curve (AUClast) between oral administration and intravenous injection.

The mark [2] stands for this setting: Table 4, 5 concentrations, 3-fold dilution from 3.3 μM (GW4064: 10 conc. from 10 μM), one experiment in duplicate, NA = inactive at 3.3 μM.
Where [3] appears, read: read-out: % max. rel. efficacy, Table 4, relative to GW4064, top conc. 3.3 μM, one experiment in duplicate.
[4] abbreviates: read-out: % max. rel. efficacy, Table 2, relative to GW4064, top conc. 3.3 μM, one experiment in duplicate.
Setting [5] is: rat, intravenous Example 11, 5 mg/kg.

Procedure for FXR: PathHunter® CHO-K1 FXR protein interaction cells were expanded from freezer stocks according to standard procedures. Cells were seeded in a total volume of 20 μL into white walled, 384-well microplates and incubated at 37° C. for the appropriate time prior to testing. Assay media contained charcoal-dextran filtered serum to reduce the level of hormones present. For agonist determination, cells were incubated with sample to induce response. […] For antagonist determination, cells were pre-incubated with antagonist followed by agonist challenge at the EC80 concentration. […] Microplates were read following signal generation with a PerkinElmer Envision™ instrument for chemiluminescent signal detection. Compound activity was analyzed using CBIS data analysis suite (ChemInnovation, CA). For agonist mode assays, percentage activity was calculated using the following formula: % Activity=100%×(mean RLU of test sample−mean RLU of vehicle control)/(mean MAX control ligand−mean RLU of vehicle control).
In this assay, two weakly complementing fragments of the β-galactosidase are expressed within stably transfected cells. The complementing fragments of the β-galactosidase are translationally fused to the C-terminus of a full-length FXR and to the steroid receptor coactivator peptide (SRCP), respectively. When bound by ligand, the FXR will migrate to the nucleus and recruit the SRCP domain, whereby complementation occurs, generating a unit of active β-galactosidase and production of chemiluminescent signal. Thus, measurement of chemiluminescent signal directly reflects FXR-coactivator interaction.

Consider `COC(=O)/C=C/c1cccc(N(Cc2ccc(-c3ccc(N(C)C)cc3F)c(C#N)c2)C(=O)C2CCCCC2)c1` [Example 6, (E)-3-(3-((2-cyano-4′-dimethylamino-2′-fluorobiphenyl-4-ylmethyl)cyclohexanecarbonylamino)phenyl)acrylic Acid Methyl Ester], for which the EC50 on FXR (setting [2]) came to 900 nM. Also, the Emax at FXR (setting [3]) stood at 42%.

On to `COC(=O)/C=C/c1cccc(N(Cc2ccc(-c3ccc(N(C)C)cc3Cl)c(C#N)c2)C(=O)C2CCCCC2)c1` [Example 7, (E)-3-(3-((2′-chloro-2-cyano-4′-dimethylaminobiphenyl-4-ylmethyl)cyclohexane-carbonylamino)phenyl)acrylic acid methyl ester], for which, on FXR (setting [2]), the response was half-maximal at 1200 nM (EC50). In addition, the Emax at FXR (setting [3]) was 21%.

In the case of `COC(=O)/C=C/c1ccc(F)c(N(Cc2ccc(-c3ccc(N(C)C)cc3)c(C#N)c2)C(=O)C2CCCCC2)c1` [Example 20, (E)-3-(3-((2-cyano-4′-dimethylaminobiphenyl-4-ylmethyl)cyclohexanecarbonylamino)-4-fluorophenyl)acrylic acid methyl ester], a half-maximal effect at FXR (setting [2]) (EC50) was put at 1500 nM. On FXR (setting [3]), the Emax was 15%.

The compound `CC(C)OC(=O)/C=C/c1cc(F)cc(N(Cc2ccc(-c3ccc(N(C)C)cc3)c(C#N)c2)C(=O)C2CCCCC2)c1` [Example 13, (E)-3-(3-((2-cyano-4′-dimethylaminobiphenyl-4-ylmethyl)cyclohexanecarbonylamino)-5-fluorophenyl)acrylic acid isopropyl ester] displayed an EC50 at FXR (setting [2]) of 800 nM. Besides, on FXR (setting [3]), the Emax came out at 20%.

Take `COC(=O)/C=C/c1cccc(N(Cc2ccc(-c3ccc(N(C)C)cc3)c(CO)c2)C(=O)C2CCCCC2)c1` [Example 1, (E)-3-(3-(cyclohexanecarbonyl-(4′-dimethylamino-2-hydroxymethylbiphenyl-4-ylmethyl)amino)phenyl)acrylic acid methyl ester]: at FXR (setting [4]), the Emax turned out to be 1%.

Consider `COC(=O)/C=C/c1cccc(N(Cc2ccc(-c3ccc(N(C)C)cc3)c(C3OCCO3)c2)C(=O)C2CCCCC2)c1` [Example 3, (E)-3-(3-(cyclohexanecarbonyl-(4′-dimethylamino-2-[1,3]dioxolan-2-ylbiphenyl-4-ylmethyl)amino)phenyl)acrylic acid methyl ester], for which, on FXR (setting [4]), the Emax was found to be 3%.

In the case of `CC(C)OC(=O)/C=C/c1ccc(F)c(N(Cc2ccc(-c3ccc(N(C)C)cc3)c(C#N)c2)C(=O)C2CCCCC2)c1` [Example 22, (E)-3-(3-((2-cyano-4′-dimethylaminobiphenyl-4-ylmethyl)cyclohexanecarbonylamino)-4-fluorophenyl)acrylic acid isopropyl ester], the Emax on FXR (setting [3]) was 3%.

At FXR (setting [2]), `COC(=O)/C=C/c1cc(N(Cc2ccc(-c3ccc(N(C)C)cc3)c(C#N)c2)C(=O)C2CCCCC2)ccc1F` [Example 14] had a concentration for a half-maximal effect (EC50) of 1500 nM. The Emax at FXR (setting [3]) was determined as 23%.

At FXR, `COCc1cc(CN(C(=O)C2CCCCC2)c2cccc(/C=C/C(=O)OC)c2)ccc1-c1ccc(N(C)C)cc1` [Example 2, (E)-3-(3-(cyclohexanecarbonyl-(4′-dimethylamino-2-methoxymethylbiphenyl-4-ylmethyl)amino)phenyl)acrylic acid methyl ester] had an EC50 above 10000 nM. In addition, the Emax at FXR (setting [4]) came to 5%.

Turning to `COC(=O)/C=C/c1cccc(N(Cc2ccc(-c3ccc(N(C)C)cc3)c(C#N)c2)C(=O)C2CCCCC2)c1F` [Example 17, (E)-3-(3-((2-cyano-4′-dimethylaminobiphenyl-4-ylmethyl)cyclohexanecarbonylamino)-2-fluorophenyl)acrylic acid methyl ester], the EC50 at FXR (setting [2]) stood at 1300 nM. Also, the Emax on FXR (setting [3]) stood at 19%.

The compound `COC(=O)/C=C/c1cccc(N(Cc2ccc(-c3ccc(N(C)C)cc3C#N)c(C#N)c2)C(=O)C2CCCCC2)c1` [Example 8, (E)-3-(3-(cyclohexanecarbonyl-(2,2′-dicyano-4′-dimethylaminobiphenyl-4-ylmethyl)-amino)phenyl)acrylic acid methyl ester] returned an EC50 on FXR (setting [2]) of 1600 nM. Besides, the Emax on FXR (setting [3]) came to 10%.

`CC(C)OC(=O)/C=C/c1cccc(N(Cc2ccc(-c3ccc(N(C)C)cc3)c(C#N)c2)C(=O)C2CCCCC2)c1F` [Example 19, (E)-3-(3-((2-cyano-4′-dimethylaminobiphenyl-4-ylmethyl)cyclohexanecarbonylamino)-2-fluorophenyl)acrylic acid isopropyl ester]: the Emax on FXR (setting [3]) stood at 42%.

In turn, `CN(C)c1ccc(-c2ccc(CN(C(=O)C3CCCCC3)c3cccc(/C=C/C(=O)OC4CC4)c3)cc2C#N)cc1` [Example 23, (E)-3-(3-((2-cyano-4′-dimethylaminobiphenyl-4-ylmethyl)cyclohexanecarbonylamino)phenyl)acrylic Acid Cyclopropyl Ester] registered an EC50 on FXR (setting [2]) of 900 nM. Also, the Emax at FXR (setting [3]) was determined as 46%.

With `CCOC(=O)/C=C/c1cc(F)cc(N(Cc2ccc(-c3ccc(N(C)C)cc3)c(C#N)c2)C(=O)C2CCCCC2)c1` [Example 12, (E)-3-(3-((2-cyano-4′-dimethylaminobiphenyl-4-ylmethyl)cyclohexanecarbonylamino)-5-fluorophenyl)acrylic acid ethyl ester], the EC50 on FXR (setting [2]) amounted to 1000 nM. Besides, the Emax at FXR (setting [3]) was found to be 47%.

In turn, `COC(=O)/C=C/c1cc(F)cc(N(Cc2ccc(-c3ccc(N(C)C)cc3)c(C#N)c2)C(=O)C2CCCCC2)c1` [Example 11, (E)-3-(3-((2-cyano-4′-dimethylaminobiphenyl-4-ylmethyl)cyclohexanecarbonylamino)-5-fluorophenyl)acrylic Acid Methyl Ester] gave an EC50 at FXR (setting [2]) of 900 nM. Further, on FXR (Table 5, relative to GW4064, mean ± SEM of two or three independent experiments in duplicate), the “% max. rel. efficacy” value was 53 ± 3^c* %. In addition, the Emax on FXR (setting [3]) was 56%; at FXR (read-out: % max. rel. efficacy, Table 5, relative to GW4064, mean ± SEM of two or three independent experiments in duplicate), 53 ± 3%. In data set [1] (male, Sprague-Dawley, plasma, rat, oral 80 mg/kg vs intravenous 5 mg/kg, dose-corrected AUClast ratio, read-out: F (oral bioavailability)), the bioavailability was 4%. Moreover, the AUC(0-t) in data set [1] (male, Sprague-Dawley, rat plasma, oral dose of Example 11, 80 mg/kg in corn oil) was 1500 ± 600 ng·h/mL. Besides, the “detected in plasma until (time after administration)” value in data set [1] (setting [5]) is given as 20 min. The “metabolism after intravenous administration” value in data set [1] (setting [5]) is on record as “rapidly metabolized to the corresponding carboxylic acid, Example 24”. Moreover, in data set [1] (rat, oral Example 11, 80 mg/kg), the “detected after (time after oral administration)” value was found to be 5 h.

As to `CCOC(=O)/C=C/c1cccc(N(Cc2ccc(-c3ccc(N(C)C)cc3)c(C#N)c2)C(=O)C2CCCCC2)c1` [Example 9, (E)-3-(3-((2-cyano-4′-dimethylaminobiphenyl-4-ylmethyl)cyclohexanecarbonylamino)phenyl)acrylic acid ethyl ester], the EC50 on FXR (setting [2]) worked out at 1200 nM. Also, on FXR (setting [3]), the Emax is 40%.

`CCOC(=O)/C=C/c1ccc(F)c(N(Cc2ccc(-c3ccc(N(C)C)cc3)c(C#N)c2)C(=O)C2CCCCC2)c1` [Example 21, (E)-3-(3-((2-cyano-4′-dimethylaminobiphenyl-4-ylmethyl)cyclohexanecarbonylamino)-4-fluorophenyl)acrylic acid ethyl ester] displayed an EC50 at FXR (setting [2]) of 1600 nM. For the same compound, at FXR (setting [3]), the Emax is 9%.

For the compound `CCOC(=O)/C=C/c1cc(N(Cc2ccc(-c3ccc(N(C)C)cc3)c(C#N)c2)C(=O)C2CCCCC2)ccc1F` [Example 15], the response on FXR (setting [2]) was half-maximal at 1300 nM (EC50). Also, the Emax on FXR (setting [3]) is 23%.
